# Laboratory results from patent publication US8008478B2, “Process for the preparation of cefixime” (Lupin Limited, priority 2004, dated 2011).
# Assay: Solubility check of a 3.3% solution of cefixime (I) in methanol
# Type: physicochemical
# Conditions: for Solubility: 3.3% solution of cefixime (I) in methanol
# Description: The most preferred embodiment of the present invention is the acidification of the filtrate obtained in step (ii) to pH 2.0 to 3.0, preferably to 2.2 to 2.4 with dilute […] filtration at 50-80°, preferably at 60-70° C., most preferably at 64-68° C.
smiles,measurement,setting,value
"C=CC1=C(C(=O)O)N2C(=O)C(NC(=O)/C(=N\OCC(=O)O)c3csc(N)n3)C2SC1 (stereo not drawn) [cefixime (I), [6R-[6α,7β(Z)]]-7-[[(2-amino-4-thiazolyl)[(carboxymethoxy)imino]acetyl]amino]-3-vinyl-3-cephem-4-carboxylic acid]",Solubility,acidification and isolation of cefixime methyl ester (IV) at 25-30° C.,Hazy
same,Solubility,acidification and isolation of cefixime methyl ester (IV) at 45-47° C.,Hazy
same,Solubility,acidification and isolation of cefixime methyl ester (IV) at 65-67° C.,Clear
same,Solubility profile (in words),"acidification and isolation of cefixime ester (IV) at 50-80° C., then alkaline hydrolysis",better solubility profile
same,Solubility (in words),"acidification and isolation of cefixime ester (IV) at temperature below 50° C., then alkaline hydrolysis",poor solubility
